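How tested: cells in 96-well plates exposed to compound for 48 hours at five concentrations. At the GI50, growth is halved. Definition used: TGI = concentration required for complete inhibition of growth.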
Tests used:
Assay in all cases: DTP human tumour cell line panel, 48 h
[1] = tested on: A549 NSCLC
[2] = tested on: ACHN renal
[3] = tested on: IGROV1 ovarian
[4] = tested on: CCRF-CEM leukemia
[5] = tested on: NCI-H460 lung
[6] = tested on: SN12C renal
[7] = tested on: SR leukemia
[8] = tested on: SNB-19 CNS
[9] = tested on: UACC-62 melanoma
[10] = tested on: T-47D breast

| SMILES | GI50 [1] [µM] | TGI [1] [µM] | GI50 [2] [µM] | GI50 [3] [µM] | TGI [3] [µM] | GI50 [4] [µM] | TGI [4] [µM] | GI50 [5] [µM] | TGI [5] [µM] | GI50 [6] [µM] | TGI [6] [µM] | GI50 [7] [µM] | TGI [7] [µM] | GI50 [8] [µM] | TGI [8] [µM] | GI50 [9] [µM] | TGI [9] [µM] | GI50 [10] [µM] | TGI [10] [µM] | TGI [2] [µM] |
| --- | --- | --- | --- | --- | --- | --- | --- | --- | --- | --- | --- | --- | --- | --- | --- | --- | --- | --- | --- | --- |
| Cc1c(Cl)cccc1C(=O)Nc1nc2c(s1)CN(C(=O)Nc1cccc(C(F)(F)F)c1)CC2 | 0.33 | > 50 | 0.326 | 0.29 | > 50 | 0.194 | > 50 | 0.182 | > 17.4 | 0.334 | > 50 | 0.0789 | > 50 | 0.307 | > 50 | 0.366 | > 50 | 0.239 | > 50 | – |
| ClC1=C(Cl)C(Cl)(C2(Cl)C(Cl)=C(Cl)C(Cl)=C2Cl)C(Cl)=C1Cl | 1.87 | 4.16 | 0.165 | 1.48 | 3.16 | 0.166 | 0.496 | 1.89 | 3.8 | 1.32 | 3.8 | 0.272 | 1.52 | 1.79 | 3.33 | 0.43 | 1.61 | 0.184 | 0.539 | 0.312 |
| CN(C)CCNC(=O)c1cc2c3cc(Cl)ccc3[nH]c2c2ncccc12 | 1.93 | 4.7 | 1.62 | 1.52 | 4.34 | 2.09 | 5.47 | 2.57 | 10.7 | 2.9 | 13.4 | 1.68 | 4.1 | 4.52 | 19.7 | 1.94 | 3.77 | 3.8 | 17.8 | 6.98 |
| CN1C(=O)C(c2c[nH]c3ccccc23)=C(c2c[nH]c3ccccc23)C1=O | 7.08 | > 25 | 6 | 5.47 | > 22.8 | 7.84 | > 25 | 5.52 | 15 | 7.75 | > 25 | 7.14 | > 25 | 9.77 | > 25 | 3.07 | 17.3 | 6.57 | > 25 | > 25 |
| Cc1c2cnccc2c(C)c2c1c1ccccc1n2CCOC(=O)c1ccccc1 | – | 43.1 | – | – | 42.7 | – | 64.4 | – | 16 | – | 21 | – | 45.9 | – | 40.2 | – | 34.8 | – | > 100 | 56.3 |
| CC(C)=CC[C@@H]1CC2(CC=C(C)C)C(=O)C(OC3(C(=O)c4ccccc4)C(=O)C4(CC=C(C)C)C[C@@H](CC=C(C)C)C(C)(C)C(CC=C(C)C)(C4=O)C3=O)(C(=O)c3ccccc3)C(=O)C(CC=C(C)C)(C2=O)C1(C)C (stereo not given in full) | 1.73 | 6.05 | 1.48 | 1.63 | 7 | 1.64 | 5.52 | 1.27 | 3.07 | 1.54 | 5.67 | 1.67 | 50 | 1.64 | 6.65 | 0.878 | 1.98 | 1.19 | 4.07 | 5.99 |
| Sc1cccc2cccnc12 | 0.497 | 11.5 | 0.697 | 0.541 | 12.6 | 0.392 | 24.5 | 0.389 | 6.23 | 1.14 | 15.1 | 0.28 | > 56.1 | 1.82 | 17.3 | 0.529 | 7.25 | 3.07 | 12.3 | 12.8 |
| N#CC1=C(N)Oc2c(sc3c(Br)cccc23)C1c1ccc([N+](=O)[O-])cc1 (stereo not given) | 0.177 | 13.5 | 0.12 | 0.33 | 18.4 | 0.121 | 9.89 | 0.0655 | 10.4 | 1 | 13.1 | 0.048 | 6.45 | 0.139 | 13 | 0.0634 | 12.3 | 0.84 | 25.3 | 13 |
| O=c1c2ccccc2nc(-c2cccc([N+](=O)[O-])c2)n1O | – | > 100 | – | – | > 100 | – | > 38.2 | – | > 100 | – | > 100 | – | > 100 | – | > 100 | – | > 100 | – | > 100 | > 100 |
| COc1cc(/C=C2\CC3C4CC=C5CC(OC(C)=O)CC[C@]5(C)C4CC[C@]3(C)C2=O)ccc1OCCN1CCCC1 (stereo not given in full) | 7.98 | > 48.6 | 5.52 | 5.81 | > 44.7 | 0.268 | 1.78 | 2.54 | – | 13.7 | 26.6 | 0.708 | 2.87 | 23.6 | > 66.9 | 1.93 | 3.85 | 5.4 | > 91 | 17.9 |
| O=C(N/N=C/c1ccc(Cl)cc1)c1ccc(NC(=O)c2ccccn2)cc1 | 15.9 | 68 | 19.1 | 38.1 | > 100 | > 100 | > 100 | 8.2 | 24.6 | 18.9 | 55.4 | 70.8 | > 100 | 30 | > 100 | 24.5 | > 100 | 21.2 | > 100 | 59.3 |
| Nc1ccc(/C=C/c2ccc3ncccc3c2)cc1 | > 100 | > 100 | > 100 | > 100 | > 100 | 0.821 | > 100 | > 100 | > 100 | > 100 | > 100 | > 100 | > 100 | > 100 | > 100 | > 100 | > 100 | > 100 | > 100 | > 100 |
| CCOc1ccc(N(C)c2ccc(/C=C/C3=[N+](C)c4ccccc4C3(C)C)cc2)cc1 | 0.201 | 1.35 | 0.306 | 0.257 | 0.982 | 0.0841 | 0.647 | 0.306 | 1.38 | 0.309 | 1.52 | 0.0499 | 0.633 | 0.367 | 1.8 | 0.444 | 2.16 | 0.392 | 2.67 | 1.11 |
| COC(=O)N[C@H]1CCc2cc(OC)c(OC)c(OC)c2-c2ccc(SC)c(=O)cc21 | < 0.01 | > 100 | < 0.01 | < 0.01 | > 100 | < 0.01 | > 100 | < 0.01 | > 100 | < 0.01 | > 100 | < 0.01 | > 100 | < 0.01 | > 100 | < 0.01 | > 100 | > 100 | > 100 | > 100 |
| CC(=O)OCC1C(=O)OCC1C(=O)N1Cc2cc3ccccc3nc2C1 (stereo not given) | – | 30.6 | – | – | 24 | – | 3.79 | – | 28.8 | – | 14.4 | – | 10.7 | – | 32.8 | – | 7.99 | – | 5.69 | 3.39 |
| CCN(Cc1ccc(OC)cc1)c1ccc(CO)c(Cl)c1 | 2.62 | 35.9 | 19.3 | 0.114 | 1.16 | 23.9 | > 83.3 | 0.317 | 14.6 | 14.5 | 39.3 | 24.7 | > 72.5 | 26.8 | > 100 | 0.0986 | 0.686 | 0.115 | 0.589 | > 81.5 |
| O=C(CCCc1ccc(N(CCCl)CCCl)cc1)NCc1ccccc1 | 6.88 | > 100 | 3.91 | 13.8 | 43.9 | 3.24 | 25.4 | 2.81 | 59.4 | 4.41 | > 100 | 0.978 | 3.66 | 18.7 | > 100 | 4.69 | 22 | 8.04 | 87.1 | > 100 |
| Cn1cc(C2=C(c3ccsc3)C(=O)NC2=O)c2ccccc21 | > 25 | > 25 | > 25 | > 25 | > 25 | > 21.1 | > 25 | > 25 | > 25 | > 25 | > 25 | > 25 | > 25 | > 25 | > 25 | > 25 | > 25 | 7.97 | > 25 | > 25 |
| COc1cc2c(c3oc(-c4ccc(O)cc4)c(O)c(=O)c13)CCC(C)(C)O2 | 0.27 | 0.729 | 0.145 | 0.158 | 0.526 | 0.359 | > 100 | 0.0996 | 0.351 | 0.271 | 0.884 | 0.0773 | – | 0.16 | > 23.4 | 0.199 | 0.616 | 0.767 | – | – |

From PubChem BioAssay (NCI)
